{
  "source": "patent US20160311911A1",
  "about": "“METHODS FOR TREATING ALLERGIC AIRWAY INFLAMMATION” (priority 2015, published 2016)",
  "key": {"IgE": {"system": "IgE", "sequence (P01854 1-428 isoform P01854-1)": "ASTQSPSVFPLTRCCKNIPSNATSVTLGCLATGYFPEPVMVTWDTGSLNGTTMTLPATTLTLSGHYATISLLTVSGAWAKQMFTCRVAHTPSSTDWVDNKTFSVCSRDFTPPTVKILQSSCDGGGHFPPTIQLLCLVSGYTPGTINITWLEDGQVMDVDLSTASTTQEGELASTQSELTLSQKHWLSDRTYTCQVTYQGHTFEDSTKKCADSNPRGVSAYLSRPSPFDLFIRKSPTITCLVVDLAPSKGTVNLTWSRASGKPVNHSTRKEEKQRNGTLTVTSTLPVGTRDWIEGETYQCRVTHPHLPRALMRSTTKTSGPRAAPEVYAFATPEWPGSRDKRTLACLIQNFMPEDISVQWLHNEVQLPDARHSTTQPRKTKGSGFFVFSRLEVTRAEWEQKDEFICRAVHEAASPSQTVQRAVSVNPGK", "details": "reference 20; cited from earlier work"}, "CXCR2 [1]": {"molecular_target": "T1, CXCR2 (Mus musculus, UniProt P35343)", "T1 construct": "endogenous in cells; host or cells: wild-type mice in vivo (receptor on neutrophils)", "T1 sequence (P35343 1-359)": "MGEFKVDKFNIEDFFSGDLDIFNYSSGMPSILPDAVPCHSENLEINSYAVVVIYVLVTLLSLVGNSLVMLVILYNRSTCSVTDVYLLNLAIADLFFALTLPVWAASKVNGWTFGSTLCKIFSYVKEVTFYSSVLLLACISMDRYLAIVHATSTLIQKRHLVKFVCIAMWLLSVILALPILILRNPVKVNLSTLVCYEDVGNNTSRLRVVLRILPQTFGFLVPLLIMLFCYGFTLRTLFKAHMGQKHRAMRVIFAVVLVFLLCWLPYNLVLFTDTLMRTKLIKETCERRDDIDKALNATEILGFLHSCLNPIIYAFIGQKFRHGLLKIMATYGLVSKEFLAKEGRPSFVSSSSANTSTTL", "test": "Ex vivo superoxide generation from BALF cells after RWPE challenge", "format": "in vivo", "details": "WT mice; 4 mg/kg intranasal 1 hour before RWPE; 16 hours after RWPE challenge", "procedure": "WT mice and Tlr4 KO mice were challenged with 100 μg of RWPE or PBS and sacrificed at 0.5 and 16 hours. Ex vivo superoxide generation by BALF cells was measured by a mixture of two probes to optimize sensitivity of detection of superoxide (luminol and Diogenes) (Yamazaki et al., Trop Med Health 2011; 39(2):41-45). In additional experiments, WT mice with intranasal administration of the CXCR2 inhibitor SB225002 (4 mg/kg body weight) 1 hour before RWPE challenge, and ex vivo superoxide generation from cells in BALF was quantified."}, "CXCR2 [2]": {"molecular_target": "T1, CXCR2", "test": "RWPE repeated-challenge model with CXCR2 inhibitor", "format": "in vivo", "details": "WT mice", "procedure": "WT mice or Tlr4 KO mice were sensitized by five intranasal doses of RWPE (100 μg/60 μl) on Days 0, 1, 2, 3, and 4. These mice were challenged with intranasal RWPE or PBS on Day 11 and killed on Day 14 (14). In addition, WT mice were sensitized by five intranasal doses of RWPE on Days 0, 1, 2, 3, and 4 with RWPE with or without the intranasal administration of 4 mg/kg body weight SB225002 (16) 1 hour before each intranasal dose of RWPE. The mice were challenged with intranasal RWPE on Day 11 and killed on Day 14 (14). In some experiments, Tlr4 KO mice were sensitized by five intranasal doses of RWPE on Days 0, 1, 2, 3, and 4 in the presence or absence of X+XO and challenged with intranasal RWPE in the presence or absence of X+XO on Day 11 and killed on Day 14 as described above (14). In some experiments, RWPE and negatively selected neutrophils derived from bone marrow of donor mice were repeatedly intranasally instilled in Tlr4 KO mice. The purity of neutrophils was assessed to be 99% by FACS. Tlr4 KO mice were intranasally administered neutrophils (4×10^6 neutrophils per mouse) 8 hours after intranasal instillation of RWPE on Days 0, 1, 2, 3, 4, and 11 and killed on Day 14 as described previously to evaluate allergic inflammation.\n(§1) Bronchoalveolar lavage fluid (BALF) and histological examinations including PAS staining for mucin were performed as described previously (Sur et al., J Immunol 1996; 157(9):4173-4180). In some experiments, leukotriene B4 (LTB4), CXCL1/2, IL-5, IL-13, TSLP, and IL-33 in BALF were assayed using ELISA kits (R&D Systems, Minneapolis, Minn.)\nMucin production was assessed by two investigators who were blinded to the treatment groups using a modification of a method reported (Wild et al., 2000, J Immunol 2000; 164(5):2701-2710) on a subjective scale of 0, 1, 2, 3, and 4 corresponding to none, mild, moderate, marked, or severe mucin deposition, respectively. The data were expressed as mean of score recorded by two blinded investigators.\nRWPE-specific IgE was measured using a previously described procedure (Wild et al., J Immunol 2000; 164(5):2701-2710). Briefly 96-well plates were coated with 100 ug/ml of RWPE protein overnight. After washing and blocking, diluted sera from the mice treated as above were applied. The plates were incubated with biotin-conjugated […] (clone R35-72; BD Biosciences, San Jose, Calif.) for 2 hours at room temperature, washed and incubated with avidin-conjugated alkaline phosphatase. After washing, fluorometric values for each well were recorded after addition of AttoPhos substrate solution (Promega, Madison, Wis.)."}, "CXCR2 [3]": {"molecular_target": "T1, CXCR2", "test": "RWPE single-challenge model with CXCR2 inhibitor: BALF cell counts", "format": "in vivo", "details": "WT mice", "procedure": "WT mice and Tlr4 KO mice were intranasally challenged with a single dose of 100 μg/60 μl RWPE reconstituted from lyophilized RWPE (Greer Laboratories, Lenoir, N.C.) and killed after 0.5, 1, 4, 16, or 72 hours. In some experiments, to generate superoxide (7, 15), Tlr4 KO mice were intranasally challenged with 0.32 mM xanthine (X) (Sigma-Aldrich, St. Louis, Mo.) with 50 mU xanthine oxidase (XO) (Sigma-Aldrich) in the presence or absence of RWPE. In some experiments, 1 hour before RWPE challenge, WT mice were treated with intranasal administration of 4 mg/kg body weight chemokine (C-X-C motif) receptor 2 (CXCR2) inhibitor SB225002 (Calbiochem, San Diego, Calif.) and challenged with RWPE and killed as described above.\nas §1"}, "NF-κB": {"system": "NF-κB", "test": "RWPE single-challenge model after intranasal NF-κB inhibitor", "format": "in vivo", "details": "WT mice; intranasal 1 hour before RWPE; BAY 11-7082 10 mg/kg, NEMO-binding domain binding peptide 25 per mouse; 16 hours", "procedure": "WT mice were intranasally challenged with a single dose of RWPE or CDE (100 μg/60 μL) and euthanized after 16 hours. In additional experiments, 1 hour before RWPE challenge, WT mice were treated with or without intranasal administration of a nuclear factor κB (NF-κB) inhibitor that selectively irreversibly blocks IκBα phosphorylation with BAY 11-7082 (10 mg/kg body weight; Calbiochem, San Diego, Calif.) (13) or NEMO-binding domain binding peptide (25 per mouse, Calbiochem) (14). These treated mice were challenged with RWPE and euthanized, as described above. Total and differential bronchoalveolar lavage fluid (BALF) cell counts were performed (16). Lungs were perfused and fixed with Zn fixative (BD Biosciences, San Jose, Calif.), and sections were stained with periodic acid-Schiff for mucus staining."}, "[4]": {"details": "4 mg/kg intranasal before each RWPE dose, vs vehicle"}},
  "data": [
    {"compound": "Omalizumab: marketed drug cited for cat allergen exposure", "values": [
      {"measurement": "severity of acute airway obstruction and symptoms caused by exposure to cat allergen", "setting": "IgE", "result": "ameliorates"}
    ]},
    {"compound": "O=C(Nc1ccc([N+](=O)[O-])cc1O)Nc1ccccc1Br", "note": "[SB225002]", "values": [
      {"measurement": "RWPE-induced recruitment of superoxide-generating cells (ex vivo superoxide generation of BALF cells)", "setting": "CXCR2 [1]", "result": "blocked"},
      {"measurement": "RWPE-induced allergic inflammation", "setting": "CXCR2 [2]; 4 mg/kg intranasal 1 hour before each RWPE dose, compared with vehicle", "result": "attenuated"},
      {"measurement": "decrease in BALF eosinophils", "setting": "CXCR2 [2]; [4]", "result": "50 to 80", "unit": "%"},
      {"measurement": "decrease in BALF level of IL-5", "setting": "CXCR2 [2]; [4]", "result": "50 to 80", "unit": "%"},
      {"measurement": "decrease in BALF level of IL-13", "setting": "CXCR2 [2]; [4]", "result": "50 to 80", "unit": "%"},
      {"measurement": "decrease in BALF level of IL-33", "setting": "CXCR2 [2]; [4]", "result": "50 to 80", "unit": "%"},
      {"measurement": "decrease in BALF level of TSLP", "setting": "CXCR2 [2]; [4]", "result": "50 to 80", "unit": "%"},
      {"measurement": "decrease in BALF total inflammatory cells", "setting": "CXCR2 [2]; [4]", "result": "50 to 80", "unit": "%"},
      {"measurement": "decrease in accumulation of mucin in epithelial cells", "setting": "CXCR2 [2]; [4]", "result": "50 to 80", "unit": "%"},
      {"measurement": "decrease in serum RWPE-specific IgE", "setting": "CXCR2 [2]; [4]", "result": "50 to 80", "unit": "%"},
      {"measurement": "suppression of neutrophil recruitment into the lungs (BALF neutrophils)", "setting": "CXCR2 [3]; 4 mg/kg intranasal 1 hour before RWPE challenge, 16 hours after challenge", "result": 66, "unit": "%"},
      {"measurement": "number of other cell types in BALF", "setting": "CXCR2 [3]; inhibitor before RWPE challenge, data not shown", "result": "did not alter"}
    ]},
    {"compound": "Cc1ccc(S(=O)(=O)/C=C/C#N)cc1", "note": "[BAY 11-7082]", "values": [
      {"measurement": "RWPE challenge-induced neutrophil recruitment into the airways", "setting": "NF-κB", "result": "decreased"}
    ]}
  ]
}
